Test results from ChEMBL document CHEMBL1201862, “PubChem BioAssay data set” (2004).
Active and inactive are the calls of the source.

How the values were obtained:
[1] = target: T1, Rac GTPase-activating protein 1 (Homo sapiens, UniProt Q9H0H5); assay: blockers of MgcRacGAP-driven Rac1 GTP hydrolysis – biochemical, ADP Hunter fluorescence, primary and confirmatory, confirmation (AID 624330); type: functional
T1 sequence (Q9H0H5 whole entry): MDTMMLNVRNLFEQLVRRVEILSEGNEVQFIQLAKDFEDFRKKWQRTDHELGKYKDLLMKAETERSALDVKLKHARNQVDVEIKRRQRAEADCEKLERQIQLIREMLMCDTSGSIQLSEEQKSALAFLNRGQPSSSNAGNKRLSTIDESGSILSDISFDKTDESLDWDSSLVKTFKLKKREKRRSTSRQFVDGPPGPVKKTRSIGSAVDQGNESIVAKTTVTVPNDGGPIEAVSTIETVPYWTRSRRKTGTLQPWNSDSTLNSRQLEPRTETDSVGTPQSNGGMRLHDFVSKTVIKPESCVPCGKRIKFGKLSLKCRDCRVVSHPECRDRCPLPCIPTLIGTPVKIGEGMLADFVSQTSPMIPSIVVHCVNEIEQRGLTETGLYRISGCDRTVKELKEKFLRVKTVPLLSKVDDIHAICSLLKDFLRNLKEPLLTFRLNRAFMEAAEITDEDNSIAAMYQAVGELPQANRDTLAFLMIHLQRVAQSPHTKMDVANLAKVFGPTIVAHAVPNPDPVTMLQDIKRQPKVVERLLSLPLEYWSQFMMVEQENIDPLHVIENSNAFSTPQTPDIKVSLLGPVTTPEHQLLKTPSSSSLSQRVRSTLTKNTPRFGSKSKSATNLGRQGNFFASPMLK

[2] = target: 1-phosphatidylinositol 4,5-bisphosphate phosphodiesterase gamma-1 (Homo sapiens, UniProt P19174); assay: Counterscreen for inhibitors of phospholipase C isozymes (PLC-B3): Fluorescence-based biochemical high throughput dose response assay to identify inhibitors of phospholipase C isozymes (PLC-gamma1).
[3] = target: Intestinal-type alkaline phosphatase (Homo sapiens, UniProt P09923); assay: inhibition of human intestinal alkaline phosphatase – biochemical, dose response (AID 488876); type: functional
[4] = target: T2, Alkaline phosphatase, tissue-nonspecific isozyme (Homo sapiens, UniProt P05186); assay: TNAP enzyme inhibition by screening hits, dose response, selectivity assay for mouse IAP inhibitor project, biochemical, human TNAP, uHTS hits (AID 488906); type: functional
T2 sequence (P05186 whole entry): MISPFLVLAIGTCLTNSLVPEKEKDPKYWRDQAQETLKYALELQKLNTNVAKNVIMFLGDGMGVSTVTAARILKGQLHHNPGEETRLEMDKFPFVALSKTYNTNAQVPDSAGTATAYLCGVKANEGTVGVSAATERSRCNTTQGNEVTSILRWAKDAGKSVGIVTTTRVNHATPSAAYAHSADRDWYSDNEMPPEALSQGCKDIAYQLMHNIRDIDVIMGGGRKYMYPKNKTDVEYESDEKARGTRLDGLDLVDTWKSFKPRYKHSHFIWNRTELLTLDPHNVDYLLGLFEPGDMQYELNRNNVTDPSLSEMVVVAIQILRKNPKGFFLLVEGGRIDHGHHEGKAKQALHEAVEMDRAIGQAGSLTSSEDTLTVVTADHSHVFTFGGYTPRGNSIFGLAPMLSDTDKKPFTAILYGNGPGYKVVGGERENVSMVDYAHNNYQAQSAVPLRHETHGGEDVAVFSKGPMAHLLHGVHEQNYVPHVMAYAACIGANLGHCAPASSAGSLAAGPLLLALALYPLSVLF

[5] = target: Intestinal-type alkaline phosphatase (Mus musculus, UniProt P24822); assay: PubChem AID 488785; type: functional
[6] = target: T3, Zinc finger protein mex-5 (Caenorhabditis elegans, UniProt Q9XUB2); assay: potency of MEX-5 RNA-binding blockers – biochemical, C. elegans, fluorescence polarization, dose response (AID 1960)
T3 sequence (Q9XUB2 whole entry): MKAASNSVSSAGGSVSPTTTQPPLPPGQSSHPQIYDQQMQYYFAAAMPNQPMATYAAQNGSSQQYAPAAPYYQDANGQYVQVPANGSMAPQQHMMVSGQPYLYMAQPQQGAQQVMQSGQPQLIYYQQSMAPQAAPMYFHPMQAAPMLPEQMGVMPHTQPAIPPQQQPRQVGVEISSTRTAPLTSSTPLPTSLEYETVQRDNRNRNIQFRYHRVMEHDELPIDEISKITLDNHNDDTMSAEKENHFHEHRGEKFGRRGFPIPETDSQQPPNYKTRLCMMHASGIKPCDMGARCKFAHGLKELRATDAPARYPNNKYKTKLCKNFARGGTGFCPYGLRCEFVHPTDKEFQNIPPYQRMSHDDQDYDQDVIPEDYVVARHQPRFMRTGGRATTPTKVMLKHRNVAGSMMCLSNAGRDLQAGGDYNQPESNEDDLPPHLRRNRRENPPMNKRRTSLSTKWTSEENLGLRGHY

[7] = target: T4, RNA-binding protein pos-1 (Caenorhabditis elegans, UniProt G5EF15); assay: disruptors of C. elegans POS-1 RNA interaction – biochemical, fluorescence polarization, dose response (AID 1964);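 also: purified POS-1 fused to maltose binding protein made in E. coli; potency of compounds blocking POS-1 binding to fluorescent RNA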
T4 sequence (G5EF15 whole entry): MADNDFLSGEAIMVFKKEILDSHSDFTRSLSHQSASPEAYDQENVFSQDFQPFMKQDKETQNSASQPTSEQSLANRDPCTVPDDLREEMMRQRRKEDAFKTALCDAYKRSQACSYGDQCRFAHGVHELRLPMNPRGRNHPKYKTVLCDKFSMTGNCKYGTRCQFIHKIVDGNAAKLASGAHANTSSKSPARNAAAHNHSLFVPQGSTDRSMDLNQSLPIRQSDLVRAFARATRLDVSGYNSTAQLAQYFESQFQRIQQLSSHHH

[8] = target: 1-phosphatidylinositol 4,5-bisphosphate phosphodiesterase beta-3 (Homo sapiens, UniProt Q01970); assay: Fluorescence-based biochemical high throughput dose response assay to identify inhibitors of phospholipase C isozymes (PLC-B3).
[9] = target: T5, Histone-lysine N-methyltransferase NSD2 (Homo sapiens, UniProt O96028); type: biochemical
T5 sequence (O96028 whole entry): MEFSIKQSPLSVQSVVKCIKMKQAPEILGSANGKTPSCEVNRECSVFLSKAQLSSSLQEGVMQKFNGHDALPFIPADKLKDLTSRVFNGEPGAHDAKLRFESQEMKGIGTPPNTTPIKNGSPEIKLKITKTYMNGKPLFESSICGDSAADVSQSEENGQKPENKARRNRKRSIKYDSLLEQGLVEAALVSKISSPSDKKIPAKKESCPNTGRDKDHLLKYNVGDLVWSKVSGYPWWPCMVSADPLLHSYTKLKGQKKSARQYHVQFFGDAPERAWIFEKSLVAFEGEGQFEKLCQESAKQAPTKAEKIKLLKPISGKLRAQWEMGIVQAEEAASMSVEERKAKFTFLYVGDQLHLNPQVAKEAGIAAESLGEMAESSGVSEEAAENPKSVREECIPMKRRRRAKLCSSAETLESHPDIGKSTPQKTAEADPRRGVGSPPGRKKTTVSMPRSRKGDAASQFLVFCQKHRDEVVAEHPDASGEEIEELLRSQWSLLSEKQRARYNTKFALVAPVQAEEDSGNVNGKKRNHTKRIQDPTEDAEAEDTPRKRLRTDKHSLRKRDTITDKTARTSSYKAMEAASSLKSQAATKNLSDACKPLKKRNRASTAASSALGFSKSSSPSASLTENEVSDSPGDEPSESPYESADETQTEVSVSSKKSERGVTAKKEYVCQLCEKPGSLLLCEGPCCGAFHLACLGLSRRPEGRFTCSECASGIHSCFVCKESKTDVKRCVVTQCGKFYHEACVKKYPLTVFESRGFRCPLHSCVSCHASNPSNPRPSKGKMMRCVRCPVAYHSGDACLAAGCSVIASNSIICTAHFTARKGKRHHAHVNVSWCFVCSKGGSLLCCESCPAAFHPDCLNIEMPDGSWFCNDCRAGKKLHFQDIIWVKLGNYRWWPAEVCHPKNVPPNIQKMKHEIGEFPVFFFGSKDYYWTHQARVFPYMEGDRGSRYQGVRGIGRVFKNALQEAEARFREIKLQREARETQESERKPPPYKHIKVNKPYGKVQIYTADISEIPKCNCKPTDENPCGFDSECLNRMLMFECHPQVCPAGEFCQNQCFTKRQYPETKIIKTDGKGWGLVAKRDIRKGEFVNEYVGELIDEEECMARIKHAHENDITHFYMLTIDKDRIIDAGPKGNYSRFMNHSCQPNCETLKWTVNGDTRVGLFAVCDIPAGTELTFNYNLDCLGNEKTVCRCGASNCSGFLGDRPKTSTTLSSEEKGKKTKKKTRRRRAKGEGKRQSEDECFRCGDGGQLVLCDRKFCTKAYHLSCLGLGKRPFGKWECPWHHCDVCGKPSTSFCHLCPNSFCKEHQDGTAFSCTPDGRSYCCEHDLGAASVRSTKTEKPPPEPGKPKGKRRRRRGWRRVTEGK

[10] = viability loss in CEM21 cells – cell-based, CellTiter-Glo luminescence, cherry-picked, cytotoxicity control for viral fusion inhibitor project, dose response (AID 652042); type: functional;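 also: potency for signal decrease meaning cytotoxicity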
[11] = HIV-1 AD8 envelope cell-cell fusion blockers – cherry-pick, dose response (AID 652062); type: functional, cell-based;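 also: luciferase signal from cell-cell fusion driven by HIV-1 clade B AD8 Env; potency is for inhibitors of fusion seen as a drop in luminescence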
[12] = off-target signal loss in HeLa-CEM21 co-culture – HeLa F-luc CTL cells, cherry-picked, counter-screen for HIV-1 Env fusion inhibitor project, dose response (AID 652040); type: functional, cell-based;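 also: potency for signal decrease marking cytotoxic or nonspecific inhibition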
[13] = blockers of HIV-1 ZM109 envelope-driven cell-cell fusion – HeLa effector, CEM target cells, luciferase, cherry-pick, dose response (AID 652058); type: functional, cell-based;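 also: luciferase signal from HIV-1 Env mediated cell-cell fusion of effector and target cells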
[14] = blockers of HIV-1 envelope-mediated cell-cell fusion – cherry-pick, dose response (AID 652057); type: functional, cell-based
[15] = target: Nuclear receptor subfamily 0 group B member 1 (Homo sapiens, UniProt P51843); type: functional, cell-based;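 also: HEK293T cells transfected with SF-1 and DAX-1 plus StAR promoter luciferase reporter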
[16] = cells; type: functional, cell-based
[17] = inhibition of ADAM10 peptide cleavage – biochemical, FRET peptide substrate, recombinant human ADAM10, selectivity assay for ADAM17 exosite inhibitor project, dose response (AID 743259);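 also: ADAM10 enzyme cleaving a FRET peptide substrate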
[18] = target: Disintegrin and metalloproteinase domain-containing protein 17 (Homo sapiens, UniProt P78536); assay: exosite inhibitors of ADAM17, dose response, biochemical (AID 743260)
[19] = microbe, parasite or virus in culture; type: functional; details: Mycobacterium tuberculosis
[20] = target: T6, Sentrin-specific protease 1 (Homo sapiens, UniProt Q9P0U3); assay: Dose response confirmation of small molecule inhibitors of the catalytic domain of the SUMO protease, SENP1 in a FRET assay.; type: functional; details: read-out: IC50_Mean
T6 sequence (Q9P0U3 whole entry): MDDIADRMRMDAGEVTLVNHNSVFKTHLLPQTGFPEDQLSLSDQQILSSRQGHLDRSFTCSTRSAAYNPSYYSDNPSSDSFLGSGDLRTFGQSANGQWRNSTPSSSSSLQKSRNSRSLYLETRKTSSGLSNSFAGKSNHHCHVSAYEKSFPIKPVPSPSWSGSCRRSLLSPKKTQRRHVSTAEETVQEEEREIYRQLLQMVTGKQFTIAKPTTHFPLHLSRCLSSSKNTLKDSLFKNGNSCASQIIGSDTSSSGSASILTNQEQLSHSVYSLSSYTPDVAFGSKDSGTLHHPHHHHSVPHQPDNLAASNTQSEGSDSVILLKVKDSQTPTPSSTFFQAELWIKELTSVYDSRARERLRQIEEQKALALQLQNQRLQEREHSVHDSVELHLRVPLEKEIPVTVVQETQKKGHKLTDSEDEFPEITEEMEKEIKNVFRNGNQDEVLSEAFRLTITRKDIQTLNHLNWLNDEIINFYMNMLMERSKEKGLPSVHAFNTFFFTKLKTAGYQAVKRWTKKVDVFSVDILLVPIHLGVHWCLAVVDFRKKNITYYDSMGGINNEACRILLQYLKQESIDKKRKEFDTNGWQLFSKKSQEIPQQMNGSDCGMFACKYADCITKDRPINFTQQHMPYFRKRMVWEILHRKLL

[21] = target: T6, Sentrin-specific protease 1; assay: SENP1 catalytic domain blockers, concentration series – biochemical, kinetic FRET, dose response (AID 651697); type: functional; details: read-out: IC50_Mean
[22] = target: Large T antigen (Simian virus 40, UniProt P03070); type: functional, Betapolyomavirus macacae;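 also: Confirmatory-stage PubChem screen for compounds that inhibit SV40 T antigen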

Disintegrin and metalloproteinase domain-containing protein 17, sequence (P78536 whole entry, the tested form may be a part): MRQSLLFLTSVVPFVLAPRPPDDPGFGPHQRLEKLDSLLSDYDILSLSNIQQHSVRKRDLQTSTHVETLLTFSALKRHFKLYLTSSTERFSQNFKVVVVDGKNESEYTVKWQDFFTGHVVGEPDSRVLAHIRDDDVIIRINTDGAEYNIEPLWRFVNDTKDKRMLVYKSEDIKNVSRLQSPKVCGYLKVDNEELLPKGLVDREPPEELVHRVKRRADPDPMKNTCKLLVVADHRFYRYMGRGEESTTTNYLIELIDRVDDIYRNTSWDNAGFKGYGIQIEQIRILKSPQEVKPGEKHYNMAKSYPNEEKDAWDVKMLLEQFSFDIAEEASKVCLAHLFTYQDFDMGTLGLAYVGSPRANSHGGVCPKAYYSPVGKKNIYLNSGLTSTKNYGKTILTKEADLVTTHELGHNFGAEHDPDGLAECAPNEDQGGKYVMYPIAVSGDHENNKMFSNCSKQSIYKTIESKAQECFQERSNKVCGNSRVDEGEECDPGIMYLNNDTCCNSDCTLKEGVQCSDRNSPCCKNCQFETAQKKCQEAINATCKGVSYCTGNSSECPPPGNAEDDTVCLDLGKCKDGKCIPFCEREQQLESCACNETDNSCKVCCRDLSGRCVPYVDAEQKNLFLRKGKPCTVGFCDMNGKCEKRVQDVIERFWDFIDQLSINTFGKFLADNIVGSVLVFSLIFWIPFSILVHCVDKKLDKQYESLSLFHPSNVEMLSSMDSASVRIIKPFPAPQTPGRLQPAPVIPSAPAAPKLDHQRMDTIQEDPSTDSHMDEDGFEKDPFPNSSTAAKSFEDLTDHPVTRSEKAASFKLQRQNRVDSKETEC
Nuclear receptor subfamily 0 group B member 1, sequence (P51843 whole entry): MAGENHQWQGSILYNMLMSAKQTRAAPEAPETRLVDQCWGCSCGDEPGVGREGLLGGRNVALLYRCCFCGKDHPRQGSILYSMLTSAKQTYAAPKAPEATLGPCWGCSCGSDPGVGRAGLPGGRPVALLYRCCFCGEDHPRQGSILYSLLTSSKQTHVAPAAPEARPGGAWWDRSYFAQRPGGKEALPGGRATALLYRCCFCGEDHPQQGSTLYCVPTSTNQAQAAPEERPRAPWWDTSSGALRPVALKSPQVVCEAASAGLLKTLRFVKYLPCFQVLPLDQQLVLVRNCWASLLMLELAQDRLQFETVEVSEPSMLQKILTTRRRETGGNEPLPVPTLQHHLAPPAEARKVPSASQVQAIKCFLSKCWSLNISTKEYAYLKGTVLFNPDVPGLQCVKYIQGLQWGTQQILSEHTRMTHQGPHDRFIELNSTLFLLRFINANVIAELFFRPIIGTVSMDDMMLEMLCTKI
1-phosphatidylinositol 4,5-bisphosphate phosphodiesterase beta-3, sequence (Q01970 whole entry): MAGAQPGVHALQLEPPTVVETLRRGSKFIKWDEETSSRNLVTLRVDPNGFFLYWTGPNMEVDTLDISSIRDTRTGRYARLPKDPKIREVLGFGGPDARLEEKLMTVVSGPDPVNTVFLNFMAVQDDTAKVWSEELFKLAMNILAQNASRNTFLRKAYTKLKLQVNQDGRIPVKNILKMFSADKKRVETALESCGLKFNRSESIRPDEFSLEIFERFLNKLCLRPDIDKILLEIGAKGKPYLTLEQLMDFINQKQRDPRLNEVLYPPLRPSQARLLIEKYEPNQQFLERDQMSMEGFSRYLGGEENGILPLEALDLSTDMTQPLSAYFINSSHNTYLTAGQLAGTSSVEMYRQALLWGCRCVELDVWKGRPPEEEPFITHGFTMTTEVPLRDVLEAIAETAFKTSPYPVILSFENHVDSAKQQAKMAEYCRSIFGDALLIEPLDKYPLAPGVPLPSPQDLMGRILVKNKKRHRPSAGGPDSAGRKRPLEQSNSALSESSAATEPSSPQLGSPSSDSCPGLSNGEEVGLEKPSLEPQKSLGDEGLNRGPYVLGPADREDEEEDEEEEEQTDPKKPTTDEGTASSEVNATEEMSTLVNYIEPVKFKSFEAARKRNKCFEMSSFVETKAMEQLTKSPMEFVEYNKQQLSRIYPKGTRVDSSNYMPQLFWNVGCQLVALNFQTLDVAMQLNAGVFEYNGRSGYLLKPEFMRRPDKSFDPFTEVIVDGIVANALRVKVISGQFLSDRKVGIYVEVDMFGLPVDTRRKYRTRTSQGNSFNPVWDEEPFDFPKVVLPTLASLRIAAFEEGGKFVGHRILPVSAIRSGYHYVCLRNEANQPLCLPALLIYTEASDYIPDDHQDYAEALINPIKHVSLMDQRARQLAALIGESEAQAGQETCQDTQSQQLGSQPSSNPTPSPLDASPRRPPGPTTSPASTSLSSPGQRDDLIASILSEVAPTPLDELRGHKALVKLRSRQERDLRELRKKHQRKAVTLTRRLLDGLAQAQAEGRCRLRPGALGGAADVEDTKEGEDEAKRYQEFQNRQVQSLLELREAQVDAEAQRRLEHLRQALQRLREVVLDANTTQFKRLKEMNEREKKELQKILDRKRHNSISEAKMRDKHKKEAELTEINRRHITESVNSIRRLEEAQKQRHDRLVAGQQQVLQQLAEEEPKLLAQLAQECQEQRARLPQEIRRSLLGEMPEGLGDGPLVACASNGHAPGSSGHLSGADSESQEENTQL
1-phosphatidylinositol 4,5-bisphosphate phosphodiesterase gamma-1, sequence (P19174 whole entry): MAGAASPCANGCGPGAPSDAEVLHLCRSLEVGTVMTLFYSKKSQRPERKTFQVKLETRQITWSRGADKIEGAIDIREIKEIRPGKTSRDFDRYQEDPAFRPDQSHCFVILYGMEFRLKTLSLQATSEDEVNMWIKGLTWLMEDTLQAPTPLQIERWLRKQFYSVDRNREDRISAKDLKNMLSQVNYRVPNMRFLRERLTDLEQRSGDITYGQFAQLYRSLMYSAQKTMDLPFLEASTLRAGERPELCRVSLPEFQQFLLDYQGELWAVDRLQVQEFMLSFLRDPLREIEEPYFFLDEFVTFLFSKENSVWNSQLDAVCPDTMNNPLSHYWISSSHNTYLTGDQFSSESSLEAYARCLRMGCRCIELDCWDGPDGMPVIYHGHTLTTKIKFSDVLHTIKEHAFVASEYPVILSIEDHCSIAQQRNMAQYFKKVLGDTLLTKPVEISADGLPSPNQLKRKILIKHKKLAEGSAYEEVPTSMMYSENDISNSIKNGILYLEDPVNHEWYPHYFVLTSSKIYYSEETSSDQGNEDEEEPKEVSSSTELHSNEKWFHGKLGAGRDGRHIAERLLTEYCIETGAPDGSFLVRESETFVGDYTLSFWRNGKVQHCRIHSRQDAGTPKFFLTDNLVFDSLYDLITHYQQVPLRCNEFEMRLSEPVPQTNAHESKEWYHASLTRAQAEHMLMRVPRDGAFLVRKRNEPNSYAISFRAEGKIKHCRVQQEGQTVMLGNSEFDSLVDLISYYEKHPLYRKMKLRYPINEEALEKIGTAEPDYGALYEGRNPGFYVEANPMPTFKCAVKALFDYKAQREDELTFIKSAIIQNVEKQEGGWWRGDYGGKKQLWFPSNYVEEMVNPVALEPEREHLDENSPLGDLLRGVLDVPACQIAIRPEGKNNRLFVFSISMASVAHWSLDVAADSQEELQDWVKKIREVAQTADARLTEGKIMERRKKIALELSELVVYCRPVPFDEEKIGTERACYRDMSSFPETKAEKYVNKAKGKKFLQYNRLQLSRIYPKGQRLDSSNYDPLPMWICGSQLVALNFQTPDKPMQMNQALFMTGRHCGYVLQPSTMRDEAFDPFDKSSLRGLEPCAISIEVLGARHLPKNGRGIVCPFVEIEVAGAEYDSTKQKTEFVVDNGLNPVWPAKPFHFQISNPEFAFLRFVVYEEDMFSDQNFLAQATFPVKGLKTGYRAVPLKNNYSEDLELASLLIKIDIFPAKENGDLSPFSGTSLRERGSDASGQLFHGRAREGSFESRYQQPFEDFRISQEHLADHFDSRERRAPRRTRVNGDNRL
Intestinal-type alkaline phosphatase (Homo sapiens, UniProt P09923), sequence (P09923 whole entry): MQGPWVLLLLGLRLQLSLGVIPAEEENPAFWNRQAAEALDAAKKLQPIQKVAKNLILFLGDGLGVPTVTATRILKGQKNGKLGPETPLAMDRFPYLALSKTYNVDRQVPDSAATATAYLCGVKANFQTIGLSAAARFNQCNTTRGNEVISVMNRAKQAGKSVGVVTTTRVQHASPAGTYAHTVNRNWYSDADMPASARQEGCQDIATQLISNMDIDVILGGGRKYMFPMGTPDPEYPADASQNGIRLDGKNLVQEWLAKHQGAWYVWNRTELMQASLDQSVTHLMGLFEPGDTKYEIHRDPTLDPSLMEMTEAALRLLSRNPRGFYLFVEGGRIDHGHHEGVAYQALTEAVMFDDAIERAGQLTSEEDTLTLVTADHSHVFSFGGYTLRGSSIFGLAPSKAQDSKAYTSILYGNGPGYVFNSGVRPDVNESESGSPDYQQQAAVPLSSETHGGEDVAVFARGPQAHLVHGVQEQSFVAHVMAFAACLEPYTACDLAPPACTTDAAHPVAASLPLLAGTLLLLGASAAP
Intestinal-type alkaline phosphatase (Mus musculus, UniProt P24822), sequence (P24822 whole entry): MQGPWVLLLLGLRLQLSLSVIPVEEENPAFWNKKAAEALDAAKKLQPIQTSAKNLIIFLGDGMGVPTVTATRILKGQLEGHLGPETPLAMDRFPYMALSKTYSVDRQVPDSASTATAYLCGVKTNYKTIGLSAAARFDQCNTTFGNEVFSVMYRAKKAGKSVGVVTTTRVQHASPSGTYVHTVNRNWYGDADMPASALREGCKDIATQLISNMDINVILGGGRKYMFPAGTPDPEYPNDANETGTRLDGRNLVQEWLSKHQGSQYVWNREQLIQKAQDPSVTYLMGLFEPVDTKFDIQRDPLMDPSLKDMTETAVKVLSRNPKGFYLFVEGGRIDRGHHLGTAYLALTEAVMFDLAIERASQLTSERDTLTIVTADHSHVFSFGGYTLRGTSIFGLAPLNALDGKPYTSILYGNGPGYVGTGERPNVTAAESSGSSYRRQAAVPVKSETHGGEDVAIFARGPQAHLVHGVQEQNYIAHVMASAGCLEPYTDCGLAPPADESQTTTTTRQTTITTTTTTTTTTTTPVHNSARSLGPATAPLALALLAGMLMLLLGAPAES

## O=C(/C=C/c1ccco1)NC(=S)Nc1ccc(C(=O)O)cc1
[1]
  IC50: 147 µM (active)
[2]
  IC50: > 122 µM (inactive)
[3]
  IC50: 21.8 µM (active)
[4]
  IC50: 45 µM (active)
[5]
  IC50: 2.97 µM (active)
[6]
  EC50: 12.8 µM (active)
[7]
  EC50: 8.75 µM (active)
[8]
  IC50: > 122 µM (inactive)
[9]
  AC50: 13 µM (active)

## CC1(C)Cc2ccccc2C(/C(=N\Nc2cccc(Cl)c2)C(N)=O)=N1
[10]
  AC50: 49.5 µM (active)
[11]
  AC50: 8.02 µM (active)
[12]
  AC50: 35.5 µM (active)
[13]
  AC50: 2.69 µM (active)
[14]
  AC50: 2.68 µM (active)

## COc1ccc(C(=O)CSc2nccn2C)c(OC)c1
[15]
  IC50: > 67.5 µM (inactive)
[16]
  IC50: > 67.5 µM (inactive)

## CC(OC(=O)CCCCCNC1=NS(=O)(=O)c2ccccc21)C(=O)Nc1cc(Cl)cc(Cl)c1 (configuration not stated)
[17]
  IC50: 50 µM (inactive)

## COc1ccccc1NC(CC(=O)c1ccccc1)C(=O)OCC(=O)c1ccc(Br)cc1 (configuration not stated)
[15]
  IC50: > 0.278 µM (active)
[16]
  IC50: > 67.5 µM (inactive)

## CC(OC(=O)CCCCCN=C1NS(=O)(=O)c2ccccc21)C(=O)Nc1cc(Cl)cc(Cl)c1 (configuration not stated)
[18]
  IC50: > 69.5 µM (inactive)

## O=C(Nc1ccccc1)C1=C[C@@H](C2CCCCC2)C[C@@H](OCc2ccc(CO)cc2)O1
[18]
  IC50: > 69.5 µM (inactive)
[19]
  CC50: > 40 µM (active)
[17]
  IC50: 21.8 µM (inactive)

## CCOc1cc(/C=C2\SC(=O)N=C2N)ccc1O
[20]
  IC50: 18.2 µM (active)
[1]
  IC50: 13 µM (active)
[21]
  IC50: 10.9 µM (active)
[22]
  IC50: 4.73 µM (active)
